The source of these data is patent US20250222009A1, “DINUCLEAR GOLD(I) COMPLEXES FOR TREATING CANCER” (KING FAHD UNIVERSITY OF PETROLEUM AND MINERALS, priority 2024, published 2025).

Broadly, the IC50 is the concentration that inhibits the measured activity by half. A low value points to greater potency in that assay.

For one experiment, the system named is A549 (lung cancer cells). The experiment in a line: MTT cytotoxicity assay, A549. In kind it is cell-based, human. Particulars: 72 h, mean (SD). As to the method: (§1) The human epithelial ovarian cancer A2780 cell line and its cisplatin-resistant clone A2780cis were obtained from Sigma-Aldrich (Milano, Italy). A2780cis cells were continuously exposed to 1 μM cisplatin to maintain cisplatin resistance. A549 cells (Human non-small cell lung cancer), MCF7 (metastatic breast cancer), PC3 (highly aggressive metastatic prostate cancer), and MG63 (osteosarcoma) were obtained from the American Type Culture Collection (ATCC). Cells were authenticated in laboratory using the PowerPlex 16 HS System. A2780, A2780cis, and PC3 cells were cultured in RPMI-1640 medium; MG63 and MCF7 cells were cultured in DMEM, and A549 cells were cultured in F12 NUT-MIX. The culture medium contained about 10% fetal bovine serum (FBS) (Gibco, Thermo Fisher Scientific, Monza, Italy), about 1% (v/v) of penicillin (10,000 units/mL)-streptomycin (10 mg/mL), and about 1% (v/v) L-glutamine (200 mM) (all from Sigma-Aldrich). Cells were cultured at 37° C. in a 5% CO2, fully humidified atmosphere.
(§2) 2.5×10^3 (PC3, MG63, MCF7) or 4.0×10^3 (A2780, A2780cis, A549) cells were seeded in 96-well microplates in 100 μL culture medium. Cells, allowed to adhere for 24 h, were then treated in triplicate with increasing concentrations of gold compounds. Cisplatin was included as a reference drug. Cell viability was evaluated using 3-(4,5-dimethylthiazol-2-yl)-2,5-diphenyltetrazolium bromide (MTT) assay (Sigma-Aldrich) after 72 h of treatment. Half maximal inhibitory concentrations (IC50), IC25, and IC75 were calculated using the CalcuSyn software version 2 (Biosoft, Ferguson, MO, USA) (See: Chou, T. C.; Talalay, P. Quantitative Analysis of Dose-Effect Relationships: The Combined Effects of Multiple Drugs or Enzyme Inhibitors. Adv. Enzyme Regul. 1984, 22, 27-55, which is incorporated herein by reference in its entirety). Fold resistance was calculated as the ratio of the IC50 of the A2780cis to that of the parental cell line A2780. Alternatively, cell viability was assayed by crystal violet staining (See: Feoktistova, M.; Geserick, P.; Leverkus, M. Crystal Violet Assay for Determining Viability of Cultured Cells. Cold Spring Harb Protoc 2016, 2016, pdb.prot087379, which is incorporated herein by reference in its entirety). Alternatively, after drug treatment, the culture Medium was removed, cells washed, fixed, and stained, and the Crystal Violet solution lasted 20 minutes (See: Sulaiman, A. A. A.; Casagrande, N.; Borghese, C.; Corona, G.; Isab, A. A.; Ahmad, S.; Aldinucci, D.; Altaf M. Design, Synthesis, and Preclinical Activity in Ovarian Cancer Models of New Phosphanegold(I)—N-Heterocyclic Carbene Complexes. J Med Chem 2022, 65, 14424-14440, which is incorporated herein by reference in its entirety).
(In general: Tetrazolium assays rely on reduction of a dye to a coloured formazan, in cell work by metabolically active cells.)

In experiment [1] the test system is PC3 (androgen-resistant prostate cancer). The experiment is described as follows: MTT cytotoxicity assay, PC3. Format: cell-based. The following applies: 72 h, mean (SD). As to the method: as §1, §2
In the next experiment the test system is MCF-7 (breast cancer). The experiment in a line: MTT cytotoxicity assay, MCF-7. In kind it is cell-based. The following applies: 72 h, mean, SD in next cell. As to the method: as §1, §2
Experiment [2] deals with A2780 ovarian cancer cells. The experiment in a line: MTT cytotoxicity assay, A2780. In kind it is cell-based, human. The following applies: 72 h, mean (SD). As to the method:
as §1, §2

The test system of experiment [3] is A2780cis (cisplatin-resistant clone of A2780). The experiment in a line: MTT cytotoxicity assay, A2780cis. In kind it is cell-based, human. The following applies: for Fold resistance (A2780cis/A2780): IC50 A2780cis/IC50 A2780; for IC50: MTT, 72 h, mean, SD in next cell. As to the method:
as §1, §2

A further experiment deals with A549-MCTSs. The experiment in a line: 3D-A549-MCTS viability (PrestoBlue). Format: cell-based, human. How it is done:
To obtain multiple spheroids, 10.0×10^4 A549 cells were seeded in non-adherent conditions on poly-HEMA coated 96 wells (final volume, 200 μL) for four days. After drug treatment (72 h), the cell viability was determined using PrestoBlue Cell Viability Reagent (Thermo Fisher Scientific, Frederick, MD, USA) (See: Casagrande, N.; Celegato, M.; Borghese, C.; Mongiat, M.; Colombatti, A.; Aldinucci, D. Preclinical Activity of the Liposomal Cisplatin Lipoplatin in Ovarian Cancer. Clin Cancer Res 2014, 20, 5496-5506, which is incorporated herein by reference in its entirety).
3D-MCTSs are a model for in vitro drug testing (See: Zanoni, M.; Piccinini, F.; Arienti, C.; Zamagni, A.; Santi, S.; Polico, R.; Bevilacqua, A.; Tesei, A. 3D Tumor Spheroid Models for in Vitro Therapeutic Screening: A Systematic Approach to Enhance the Biological Relevance of Data Obtained. Sci Rep 2016, 6, 19103, which is incorporated herein by reference in its entirety) and to test drug tissue penetration. Thus, the effects of complex 3 in A549-MCTSs were determined by cultivating tumor cells in non-adherent conditions on poly-HEMA coated wells. […] Representative micro-photographs of A549-MCTSs treated with complex 3 (0.3-5 μM) and with cisplatin (15-250 μM) are shown in FIG. 9C.

The next experiment relates to MG-63 (osteosarcoma). The experiment in a line: MTT cytotoxicity assay, MG-63. Particulars: 72 h, mean, SD in next cell. Format: cell-based. As to the method: as §1
2.5×10^3 (PC3, MG63, MCF7) or 4.0×10^3 (A2780, A2780cis, A549) cells were seeded in 96-well microplates in 100 μL culture medium. Cells, allowed to adhere for 24 h, were then treated in triplicate with increasing concentrations of gold compounds. Cisplatin was included as a reference drug. Cell viability was evaluated using 3-(4,5-dimethylthiazol-2-yl)-2,5-diphenyltetrazolium bromide (MTT) assay (Sigma-Aldrich) after 72 h of treatment. Half maximal inhibitory concentrations (IC50), IC25, and IC75 were calculated using the CalcuSyn software version 2 (Biosoft, Ferguson, MO, USA) (See: Chou, T. C.; Talalay, P. Quantitative Analysis of Dose-Effect Relationships: The Combined Effects of Multiple Drugs or Enzyme Inhibitors. Adv. Enzyme Regul. 1984, 22, 27-55, which is incorporated herein by reference in its entirety). Fold resistance was calculated as the ratio of the IC50 of the A2780cis to that of the parental cell line A2780. […]

For experiment [4], the system named is A2780 ovarian cancer cells. The following applies: from J Med Chem 2022, 65, 14424; cited from earlier work.
The test system of experiment [5] is A2780cis (cisplatin-resistant clone of A2780). The following applies: from J Med Chem 2022, 65, 14424; cited from earlier work.

For `N.N.[Cl][Pt][Cl]` [Cisplatin, reference compound], the IC50 was found to be 6.21 µM in the experiment with A549 (lung cancer cells); 6.2 µM in the experiment with A549 (lung cancer cells) (listed as cisplatin); 3.32 µM in experiment [1]; 3.3 µM in experiment [1] (listed as cisplatin); 22.2 µM with MCF-7 (breast cancer); 1.51 µM in [2]. In addition, the concentration for half-maximal inhibition (IC50) was 10.4 µM in experiment [3] and 44 µM in the experiment on A549-MCTSs (72 h, PrestoBlue, poly-HEMA coated wells). Further, in experiment [3], the “Fold resistance (A2780cis/A2780)” value was 6.93. Moreover, the “IC50 fold higher than complex 3 in A549-MCTSs” value with A549-MCTSs (cisplatin vs complex 3) worked out at 46 fold.
As to `CC(C)c1cccc(C(C)C)c1-n1ccn(-c2c(C(C)C)cccc2C(C)C)[c]1=[Au-][P+](CCC[P+]([Au-]=[c]1n(-c2c(C(C)C)cccc2C(C)C)ccn1-c1c(C(C)C)cccc1C(C)C)(c1ccccc1)c1ccccc1)(c1ccccc1)c1ccccc1` [Complex 2, [(Au(IPr))2(C27H26P2)](PF6)2], the IC50 is 0.26 µM with A549 (lung cancer cells); 0.25 µM in experiment [1]; 0.28 µM in the experiment with MCF-7 (breast cancer); 0.42 µM in the experiment with MG-63 (osteosarcoma); 0.28 µM in [2]; 0.45 µM in [3]. For the same molecule, the “Fold resistance (A2780cis/A2780)” value in experiment [3] is reported as 1.61.
For `CC(C)c1cccc(C(C)C)c1-n1ccn(-c2c(C(C)C)cccc2C(C)C)[c]1=[Au-][P+](CC[P+]([Au-]=[c]1n(-c2c(C(C)C)cccc2C(C)C)ccn1-c1c(C(C)C)cccc1C(C)C)(c1ccccc1)c1ccccc1)(c1ccccc1)c1ccccc1` [Complex 1, [(Au(IPr))2(C26H24P2)](PF6)2], the IC50 in the experiment with A549 (lung cancer cells) is 0.22 µM; in [1], 0.28 µM; with MCF-7 (breast cancer) it was 0.17 µM; with MG-63 (osteosarcoma), 0.31 µM; in experiment [2], 0.28 µM; in [3], 0.33 µM. The “Fold resistance (A2780cis/A2780)” value in experiment [3] is listed as 1.18.
Regarding `CC(C)c1cccc(C(C)C)c1-n1cc[n+](-c2c(C(C)C)cccc2C(C)C)[c]1[Au-][P+](C1CCCCC1)(C1CCCCC1)C1CCCCC1.ClC(Cl)Cl.F[P-](F)(F)(F)(F)F` [[Au(IPr)(Cy3P)]PF6·CHCl3], the “anti-proliferative activity in A2780 cells (comparison)” value in experiment [4] is reported as “more active”. For the same molecule, in experiment [5], the “anti-proliferative activity in A2780cis cells (comparison)” value is recorded as “more active”.
